{"source": "patent US4150029A", "about": "“3-Aryl 2-oxazolidinones, their process of preparation and their therapeutical application” (Delalande S.A., priority 1976, dated 1979)", "key": {"[1]": {"assay": "Acute toxicity in mice", "conditions": "mouse, in vivo, po, acute toxicity, read-out: 50 DL"}, "[2]": {"tested_on": "generalised trembling caused by an intraperitoneal injection of dl-5-hydroxytryptophane", "assay": "Test A: potentiation of generalised trembling caused by dl-5-hydroxytryptophane in the mouse", "type": "in vivo", "conditions": "po; mouse, p.o.; dl-5-hydroxytryptophane 200 mg/kg i.p.; read-out: Test A 50 DE", "experimental": "Potentiation in a mouse of generalised trembling caused by an intraperitoneal injection (200 mg/kg) of dl-5-hydroxytryptophane, according to the mode of operation described by GOURET C. and RAYNAUD G. in the J. Pharmacol. (PARIS), (1974), 5, 231."}, "[3]": {"tested_on": "ptosis observed one hour after an intravenous injection of reserpine", "assay": "Test B: antagonism of reserpine-induced ptosis in the mouse", "type": "in vivo", "conditions": "po, 1 h, p.o., reserpine 2 mg/kg i.v., read-out: Test B 50 DE", "experimental": "Antagonism in relation to ptosis observed one hour after an intravenous injection (2 mg/kg) of reserpine was given to a mouse, according to the mode of operation described by GOURET C. and THOMAS J. in J. Pharmacol. (PARIS), (1973), 4, 401."}, "[4]": {"tested_on": "pontogeniculo-occipital points (P.G.O.) caused by reserpine", "assay": "Test C: diminution in density of reserpine-induced pontogeniculo-occipital (P.G.O.) points in the cat", "type": "in vivo", "conditions": "Felis catus, po, reserpine 0.5 mg/kg, read-out: Test C 50 DE", "experimental": "Diminution in the density of pontogeniculo-occipital points (P.G.O.) caused by injecting a cat with 0.5 mg/kg of reserpine, according to the mode of operation described by COSTON A. and GOURET C. in J. Pharmacol. (PARIS), (1976), 7, 409."}}, "data": [{"compound": "O=C1OC(CO)CN1c1ccc([N+](=O)[O-])cc1", "note": "(centres unmarked) [compound 740564]", "values": [{"measurement": "LD50", "setting": "[1]", "result": "> 1000", "unit": "mg/kg"}, {"measurement": "ED50", "setting": "[2]", "result": 38, "unit": "mg/kg"}, {"measurement": "ED50", "setting": "[3]", "result": 42, "unit": "mg/kg"}, {"measurement": "ED50", "setting": "[4]", "result": 16, "unit": "mg/kg"}]}, {"compound": "CCOc1ccc(N2CC(CO)OC2=O)cc1", "note": "(centres unmarked) [compound 760037]", "values": [{"measurement": "LD50", "setting": "[1]", "result": "> 2000", "unit": "mg/kg"}, {"measurement": "ED50", "setting": "[2]", "result": 16, "unit": "mg/kg"}, {"measurement": "ED50", "setting": "[3]", "result": 40, "unit": "mg/kg"}, {"measurement": "ED50", "setting": "[4]", "result": 5.4, "unit": "mg/kg"}]}, {"compound": "O=C1OC(CO)CN1c1ccc(OCc2ccccc2)cc1", "note": "(centres unmarked) [compound 760167, 5-hydroxymethyl 3-p-benzyloxyphenyl 2-oxazolidinone]", "values": [{"measurement": "LD50", "setting": "[1]", "result": "> 2000", "unit": "mg/kg"}, {"measurement": "ED50", "setting": "[2]", "result": 9.5, "unit": "mg/kg"}, {"measurement": "ED50", "setting": "[3]", "result": 3.3, "unit": "mg/kg"}, {"measurement": "ED50", "setting": "[4]", "result": 15.2, "unit": "mg/kg"}]}, {"compound": "CCCCOc1ccc(N2CC(CO)OC2=O)cc1", "note": "(centres unmarked) [compound 760304]", "values": [{"measurement": "LD50", "setting": "[1]", "result": "> 2000", "unit": "mg/kg"}, {"measurement": "ED50", "setting": "[2]", "result": 5, "unit": "mg/kg"}, {"measurement": "ED50", "setting": "[3]", "result": 5, "unit": "mg/kg"}, {"measurement": "ED50", "setting": "[4]", "result": 6.1, "unit": "mg/kg"}]}, {"compound": "N#Cc1ccc(N2CC(CO)OC2=O)cc1", "note": "(centres unmarked) [compound 760271]", "values": [{"measurement": "LD50", "setting": "[1]", "result": 1050, "unit": "mg/kg"}, {"measurement": "ED50", "setting": "[2]", "result": 20, "unit": "mg/kg"}, {"measurement": "ED50", "setting": "[3]", "result": 11, "unit": "mg/kg"}, {"measurement": "ED50", "setting": "[4]", "result": 11, "unit": "mg/kg"}]}]}
